The record followed here is US20150352134A1, “COMPOSITION FOR TOPICAL SKIN APPLICATION CONTAINING GINSENOSIDE F2 DERIVED FROM HYDROPONIC GINSENG” (AMOREPACIFIC CORPORATION, priority 2012, published 2015).

For test [1], the system named is tyrosinase. The test is described as follows: Tyrosinase inhibitory effect. The format is biochemical, mushrooms. Conditions: 37° C., absorbance 475 nm.
Experimental: The tyrosinase as used herein is an enzyme extracted from mushrooms and purchased from Sigma-Aldrich. Firstly, tyrosine as a substrate is dissolved in distilled water to prepare a 0.3 mg/mL solution, which is added dropwise to a test tube at an amount of 1.0 mL each time. To the solution are added 1.0 mL of a potassium phosphate buffer solution (0.1 mol, pH 6.8) and 0.7 mL of distilled water.
0.2 mL of the sample solution is added to the reactant solution and then allowed to have a reaction in a thermostat container at 37° C. for 10 minutes. In this regards, the control is the reactant solution containing 0.2 mL of a solvent alone in place of each sample solution. The positive control uses ascorbic acid. 0.1 mL of a 2500 unit/mL tyrosinase solution is added to the reactant solution, which is then allowed to have a reaction again in a thermostat container at 37° C. for 10 minutes. The test tube filled with the reactant solution is put into an ice water to cause quenching and thus stop the reaction. The absorbance at 475 nm is measured with a photoelectric spectrophotometer. The tyrosinase inhibitory effect is calculated according to the following mathematical formula 3.
In another test the target is T1, elastase type III (Sus scrofa, UniProt P00772).
T1 construct: purchased Sigma-Aldrich E0127
The test is described as follows: Elastase inhibitory effect. The format is biochemical. Conditions: EGCG 250 μM; 25° C., 15 minutes, absorbance 415 nm. The protocol: The elastase inhibitory function of the ginsenoside F2 is measured in comparison with that of EGCG. The elastase and the substrate used herein are purchased from Sigma-Aldrich, U.S.A. (Cat. No. E0127).
The elastase inhibitory function is measured according to the following method.
In a 96-well plate, ginsenoside F2 (200 μL) and 50 μL of a 20 μg/mL elastase type III solution are mixed with a […] tris-HCL buffer solution (pH 8.0). The positive control is EGCG 250 μM, and the negative control which is a non-treated group is distilled water. Then, 100 μL of 0.4514 mg/mL N-succinyl-ala-ala-ala-p-nitroanilide prepared with the buffer solution is added to the mixture and allowed to react at 25° C. for 15 minutes. After completion of the reaction, the absorbance at 415 nm was measured. The blank test is performed in the same manner as described above to achieve calibration verification.
The elastase inhibitory function is calculated according to the following mathematical formula 1, and the results are presented in Table 2.
Elastase inhibition rate (%)={1−(C−D)/(A−B)}×100 [Mathematical Formula 1]
A: Absorbance at 415 nm with enzyme and no test substance.
B: Absorbance at 415 nm with no test substance and no enzyme.
C: Absorbance at 415 nm with test substance and enzyme.
D: Absorbance at 415 nm with test substance and no enzyme.

The subject of test [2] is mouse with vitiligo (C57b1/6-Mitf^mi-vit). The test is described as follows: Grey hair prevention: melanin in newly grown hair of mouse with vitiligo. Format: in vivo. Conditions: applied twice a day, about 3 weeks, 50 mM IBMX, 2.5% ginsenoside F2. The protocol:
A mouse with vitiligo (C57b1/6-Mitf^mi-vit) is purchased from The Jackson Lab in U.S.A. The testing method on the grey hair inhibitory effect using a mouse with lots of grey hair is carried out as follows. A 12-week old mouse is subjected to depilation on the back side. The area of the depilated region is controlled to be the same to every object. From the next day of the depilation, the grey hair inhibitory substances are applied on the depilated region twice a day. The vehicle for the grey hair inhibitory substances is the mixture of EtOH, 1,3-BG and DW (3:2:5 in volume ratio). The liquid containing the vehicle alone is the negative control, the liquid containing the vehicle in combination with 50 mM IBMX is the positive control, and the liquid containing the vehicle in combination with 2.5% ginsenoside F2 is the test group. When the difference in the grey hair inhibitory effect between the substances is visually recognizable in about 3 weeks, the newly grown hair is collected to measure the quantity of melanin produced in the hair. The quantity of melanin in the hair is measured using esperase (Novozyme) strains that are a protein hydrolase. Esperase is dissolved in a buffer solution (50 mM tris-HCl, 5 mM DTT, pH 9.3) to a concentration of 1 NPU/ml to prepare a reaction buffer. 5 mg of mouse hair is put in 1 ml of the reaction buffer, which is stirred at a speed of 1,000 rpm at 37° C. for 13 hours to cause the reaction and then subjected to a momentary centrifugal isolation to separate the reactant solution from hair. The reactant solution thus obtained is placed in each well of a 96-well plate, and the absorbance at 405 nm is measured to determine the amount of melanin in the reactant solution. When a mouse with vitiligo and lots of grey hair is treated with the negative control substance, the positive control substance, or the test substance, the efficacies are visually observed, and the melanin in hair is quantitatively analyzed.

In a further test the test system is Melanin-a cells. The test is described as follows: Melanogenesis promotion in Melanin-a cells. Format: cell-based. Conditions: 100 μM, 3 days; DMSO (0.1%) = 100. The method, then: Melanin-a cells are injected in a 24-well microtiter plate at a rate of 50,000 cells per well with an RPMI medium containing 5% fetal bovine serum, 100 IU penicillin G, and 0.2 μM TPA. Next day, the cells are treated with ginsenoside F2 as a test substance independently at the final concentration of 10 ppm or 50 ppm. The negative control is treated with 0.1% DMSO, and the positive control is treated with 100 μM IBMX. Then, the cells are cultured at 37° C. for 3 days. The wells of the plate are washed with PBS, and 100 μl of 1N NaOH is added to each well to dissolve melanin in the cells. The absorbance of the dissolved melanin is measured at 405 nm with a microplate reader. The effect of the ginsenoside F2 to promote melanogenesis is evaluated in comparison with that of the control groups.

Test [3] concerns tyrosinase. The test is described as follows: Tyrosinase expression in melanocytes (Western Blot). Format: cell-based. The settings on record: 501me1 cell line, IBMX 100 μM, ginsenoside 10 ppm. The protocol:
(§1) 501me1 cell line is injected in each well of a 6-well microtiter plate at a rate of 500,000 cells/well. The cell line in each well is treated with 0.1% of DMSO as the negative control group, 100 μM of IBMX as the positive control group, or ginsenoside 10 ppm of F2 as the test group, and cultured at 37° C. for 24 hours, 48 hours, or 72 hours, to obtain proteins. The proteins thus obtained are subjected to Western Blot using MITF and tyrosinase antibodies. Protein extraction and Western Blot are performed using the standard methods known in the art.
For orientation: A western blot detects proteins with antibodies after separation by electrophoresis.

In the next test the test system is MITF. The test is described as follows: MITF expression in melanocytes (Western Blot). Format: cell-based. Conditions: 501me1 cell line, IBMX 100 μM, ginsenoside 10 ppm. The method, then:
as §1

A further test deals with B16/F10 melanoma cells. The experiment in a line: Melanogenesis inhibition in B16/F10 melanoma cells. Conditions: sample containing 0.001 wt. % of test substance; 3-day cultivation. Format: cell-based. The protocol:
As a test substance, a sample containing 0.001 wt. % of ginsenoside F2 or kojic acid is added to a culture medium of B16/F10 melanoma cells (available from Korean Cell Line Bank) at a predetermined concentration. The culture medium is eliminated after 3-day cultivation. The cells are washed with PBS and dissolved in 1N NaOH. Then, the absorbance at 405 nm is measured. The control is the cells not treated with any test substance. In comparison with the melanin content in the control group, the inhibitory ability of each test substance against melanogenesis is measured. […] [formula]

For test [4], the system named is potassium ion channels (KATP channels). The test is described as follows: KATP channel opener test: recovery of NIH3T3 proliferation blocked by tolbutamide (WST-1). Format: cell-based, mouse. Conditions: 10 μM minoxidil after 2.5 mM tolbutamide, 48 hours. From the text:
Minoxidil, a treatment for hair loss, is known as a potassium ion channel opener (KATP channel opener) potentially acting on mitochondria and a representative drug used for treatment of androgenic alopecia (hair loss). A testing method used to evaluate the action of minoxidil includes treating with tolbutamide (SIGMA-ALDRICH, T0891) blocking the potassium ion channels (KATP channels) in fibroblasts constituting the corium of scalp to inhibit cell proliferation and then opening the potassium ion channels (KATP channels) to resume the cell proliferation. In order to evaluate the function of the composition of the present invention as a KATP channel opener, the present invention uses a mouse embryonic fibroblast cell line, NIH3T3, as fibroblasts. The cell line is obtained by naturally immortalizing a fibroblast cell line isolated from an NIH Swiss mouse embryo with 3T3 protocol. The cell line is cultured with DMEM (Dulbecco's modified eagle's medium, Gibco BRL, Gaithersburg, Md., U.S.A.) containing 10% FBS (Fetal Bovine Serum) in an incubator under the conditions of 5% CO2 and 37° C. for 24 hours.
In general terms: Tetrazolium dyes change colour on reduction, which living cells bring about.

For the next test, the target named is T2, 5α-reductase (Homo sapiens, UniProt P31213).
T2 construct: 3×FLAG; expressed in transfected cells; host or cells: HEK293
T2 sequence (P31213 1-254): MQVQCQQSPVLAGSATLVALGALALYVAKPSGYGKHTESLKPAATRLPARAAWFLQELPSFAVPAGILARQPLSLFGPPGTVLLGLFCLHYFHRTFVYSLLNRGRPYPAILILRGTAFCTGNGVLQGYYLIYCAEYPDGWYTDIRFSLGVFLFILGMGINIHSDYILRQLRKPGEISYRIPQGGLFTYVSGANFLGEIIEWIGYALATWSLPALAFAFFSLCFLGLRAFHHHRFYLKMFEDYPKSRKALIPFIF
The test is described as follows: 5α-reductase activity inhibition, conversion of [14C]testosterone to DHT in HEK293-5α R2 cells. The format is cell-based. The settings on record: 2 hours. The protocol:
In order to evaluate the inhibitory effect on the activity of 5α-reductase, the conversion rate from [^14C]testosterone to [^14C]dihydrotestosterone (DHT) in HEK293-5α R2 cells is measured. P3×FLAG-CMV-5α R2 is transduced into HEK293 cells, which are cultured in a 24-well plate at a rate of 2.5×10^5 cells per well (Park et al., 2003, JDS. Vol. 31, pp. 191-98). The next day, the used culture medium is replaced with a new culture medium containing an enzyme substrate and an inhibitor. The substrate of the culture medium is 0.05 μCi [^14C]testosterone (Amersham Pharmacia Biotech, UK).
To evaluate the degree of 5α-reductase activity inhibition, the cells are treated with ginsenoside F2 and then cultured in a 5% CO2 incubator at 37° C. for 2 hours. In this regard, the negative control is the group not treated with ginsenoside F2, while the positive control is the group treated with finasteride. Subsequently, the culture medium is collected to extract steroids with 800 μl of ethylacetate, and the supernatant organic solvent phase is isolated and dried. The residue is dissolved in 50 μl of ethylacetate and developed on silica plastic sheet kieselgel 60 F254 using an ethylacetate-hexane (1:1) solvent.
The plastic sheet is dried out in the air and measured in regards to the abundance of isotope using a bath system. The dry plastic sheet together with an X-ray film is put in a bath cassette. After one week, the abundance of isotope of testosterone and dihydrotestosterone remaining on the film is measured to calculate the conversion rate and the inhibition rate according to the following mathematical formulas 5 and 6, respectively.

The test system of a further test is collagenase (MMP-1). The experiment in a line: Collagenase (MMP-1) expression in human fibroblasts (ELISA). Conditions: 10 μg/mL for 24 hours; not treated control = 100. Format: cell-based. The method, then: The ginsenoside F2 of the present invention is measured in regards to the inhibitory effect on the generation of collagenase in comparison with retinoic acid. […] The human fibroblasts are treated with ginsenoside F2 or retinoic acid at a concentration of 10 μg/mL for 24 hours. Then, the cell culture medium is collected. The production yield of collagenase in the collected cell culture medium is measured using a collagenase measurement instrument commercially available (Catalog #. RPN 2610, USA Amersham Pharma Inc.). Firstly, the collected cell culture medium is put in each well of a 96-well plate uniformly coated with the primary collagenase antibodies and then subjected to antigen-antibody reactions in a thermostat container for 3 hours. After 3 hours, the secondary collagenase antibodies coupled to the chromophore groups are put in each well of the 96-well plate and then allowed to react for more 15 minutes. […] The intensity of yellowness in the reaction mixture is varied depending on the progress of the reaction. The absorbance of the yellow-colored 96-well plate is measured at 405 nm with a spectrophotometer, and the expression level of collagenase is calculated according to the following mathematical formula 2. In this regard, the absorbance of the cell culture medium collected from the group not treated with the composition of the present invention is considered as the absorbance of the control. [formula]
A general note: An ELISA detects its analyte on a solid surface through an enzyme-linked reagent.

The subject of test [5] is procollagen type (I) in fibroblasts. The test is described as follows: Collagen biosynthesis in fibroblasts (procollagen type (I) ELISA). The format is cell-based. Conditions: 10 ng/ml, 24 hours; non-treated group = 100%. The method, then: The ginsenoside F2 of the present invention is compared with TGF-β in regards to the effect of promoting biosynthesis of collagen. Firstly, fibroblasts are seeded in 24 wells at a rate of 10^5 per well and cultured until the growth reaches 90%. The fibroblasts are cultured in a non-serum culture medium for 24 hours, treated with each 10 ng/ml of ginsenoside F2 or TGF-β dissolved in the non-serum culture medium, and then cultured in a CO2 incubator for 24 hours. The supernatant liquid is collected to determine an increase or decrease of procollagen using a procollagen type (I) ELISA kit. The collagen synthesis ability is denoted with respect to 100% for the non-treated group.

T1 sequence (P00772 27-266): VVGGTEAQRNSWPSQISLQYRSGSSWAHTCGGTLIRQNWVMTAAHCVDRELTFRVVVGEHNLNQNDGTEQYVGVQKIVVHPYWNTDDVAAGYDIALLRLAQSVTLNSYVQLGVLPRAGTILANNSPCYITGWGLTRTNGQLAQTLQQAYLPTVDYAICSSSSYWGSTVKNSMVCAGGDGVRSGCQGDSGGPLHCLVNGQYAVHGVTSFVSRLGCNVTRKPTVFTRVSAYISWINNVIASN

As for `O=C1O[C@H]([C@@H](O)CO)C(O)=C1O` [Ascorbic acid, ascorbic acid], the “Tyrosinase inhibition rate (%)” value with tyrosinase [1] came out at 52%.

For the compound `O=C(O[C@@H]1Cc2c(O)cc(O)cc2O[C@@H]1c1cc(O)c(O)c(O)c1)c1cc(O)c(O)c(O)c1` [EGCG], the “Inhibition rate (%) (elastase)” value on elastase type III is listed as 65%.

On to `CC(C)Cn1c(=O)n(C)c(=O)c2[nH]cnc21` [IBMX], for which, in test [2], the “Amount of melanin (%) with respect to control” value came out at 105.9%. In addition, the “Yield of Melanin (%)” value in the test with Melanin-a cells is listed as 120%. Also, the results for the “Tyrosinase (Western Blot, in comparison with 100 of the negative control group)” value in the test with tyrosinase [3] (24 hrs), in the test on tyrosinase [3] (48 hrs) and in the test on tyrosinase [3] (72 hrs) were 160, 149 and 298, respectively. Also, the “MITF (Western Blot, in comparison with 100 of the negative control group)” value with MITF (24 hrs) stood at 121; with MITF (48 hrs) it was 98; in the test on MITF (72 hrs), 224.

For `O=c1cc(CO)occ1O` [Kojic acid, kojic acid], in the test on B16/F10 melanoma cells, the “Melanogenesis inhibition rate (%)” value was found to be 53%.

Turning to `Nc1cc(N2CCCCC2)nc(N)[n+]1[O-]` [Minoxidil], the “Cell proliferation ability (%)” value in test [4] is 132%.

On to `CC(C)(C)NC(=O)[C@H]1CC[C@H]2[C@@H]3CC[C@H]4NC(=O)C=C[C@]4(C)[C@H]3CC[C@]12C` [Positive control, finasteride, reference compound], for which the “Inhibition rate (%)” value on 5α-reductase (5α-reductase activity) turned out to be 42.5%. In addition, the “Conversion rate (%)” value at 5α-reductase (testosterone to dihydrotestosterone) is on record as 27.6%.

As to `CC1=C(/C=C/C(C)=C/C=C/C(C)=C/C(=O)O)C(C)(C)CCC1` [Retinoic acid, retinoic acid], the “Collagenase expression level(%)” value with collagenase (MMP-1) is given as 75%.

For TGF-β, in test [5], the “Collagen synthesis ability (%)” value is given as 183.5%.
